Source: US12630525B2, “Triazinylmethylcycloalkylcarboxylic acid derivative, and pharmaceutical composition and use thereof” (SHANGHAI HAIYAN PHARMACEUTICAL TECHNOLOGY CO., LTD., priority 2021, dated 2026)

Legend:
hP2X3 = target: T1, hP2X3 (Homo sapiens, UniProt P56373); assay: FLIPR assay, antagonistic activity against hP2X3 receptor; format: cell-based; settings: 1321N1/hP2X3 cells, FLIPR Calcium 4, agonist 3000 nM; read-out: P2X3 (IC50/nM)
T1 construct: host or cells: 1321N1
T1 sequence (P56373 1-397): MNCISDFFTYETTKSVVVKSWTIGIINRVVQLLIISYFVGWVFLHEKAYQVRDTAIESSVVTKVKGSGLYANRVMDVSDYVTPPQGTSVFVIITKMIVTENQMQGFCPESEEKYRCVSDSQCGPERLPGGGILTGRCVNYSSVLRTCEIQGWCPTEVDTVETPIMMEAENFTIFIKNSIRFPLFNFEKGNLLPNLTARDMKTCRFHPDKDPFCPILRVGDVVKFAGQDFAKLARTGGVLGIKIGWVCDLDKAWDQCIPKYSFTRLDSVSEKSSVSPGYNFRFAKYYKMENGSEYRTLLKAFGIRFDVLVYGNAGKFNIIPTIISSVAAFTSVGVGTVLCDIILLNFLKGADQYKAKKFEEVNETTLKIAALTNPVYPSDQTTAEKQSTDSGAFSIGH
Method: (§1) Test Example 1: Screening Compounds for Antagonistic Activity Against hP2X3/hP2X2/3 Receptors by FLIPR Assay
(§2) Cell preparation: Cells 1321N1/hP2X3 and cells 1321N1/hP2X2/3 (supplier: Chempartner) were […] with Versene digestive solution. After centrifugation, the cells were suspended using plate medium (DMEM+[…]) and counted. The cells were adjusted to 3×10^5 cells/mL. Each of the 384-well test plates was covered with 50 μL cells and cultured in a […] incubator at 37° C. for 16 hours to 24 hours.
(§3) Compound preparation: 1. Test sample: test compound at a concentration 180 times the required concentration (54 mM DMSO stock solution) was prepared using DMSO in a 384-well polypropylene microporous plate conforming to Echo standard, 500 nL of which was added to each well of a 384-well compound plate. Then 30 μL of test buffer (1*HIBSS+2 mM CaCl2+20 mM HEPES containing 1.26 mM Ca^2+) was added to each well. The 384-well compound plate was shook for 20 min to 40 min to mix well.
(§4) 2. Agonist: agonist ([…]) at a concentration 3 times the required concentration (the final concentration of 3000 nM is required for both hP2X3 and hP2X2/3 cells) was prepared with the test buffer. 45 μL of agonist was added to each well of the 384-well compound plate.
(§5) Dye incubation: The cell plate was taken out. The supernatant was removed. 30 uL of Dye (FLTPR® Calcium 4 Assay Kit, test buffer diluted) was added to each well. The cells were incubated for 1 hour.
(§6) FLTPR detection: 15 μL of compound was added to each well of the cell plate (FLTPR instrument sampling). After 15 minutes, 22.5 μL of agonist was added to each well. Fluorescence signals (excitation wavelength of 470 nm to 495 nm, emission wavelength of 515 nm to 575 nm) were detected.
(§7) Data processing: the difference between the peak value and the valley value of the signal was taken as the basic data. The highest concentration of positive drug was taken as 100% inhibition rate, and DMSO data was taken as 0% inhibition rate. The inhibition curves of compounds were fitted by log (inhibitor) vs. response—Variable slope on Graphpad prism 6 and the IC50 value was calculated.
(§8) Experimental homogeneity standard: each plate was subjected to ≥12 max values (DMSO action results) and ≥12 min values (highest concentration positive drug action results), and the Z value was calculated. If Z≥0.5, it is considered that the parallel wells are homogenous and the data is reliable. The calculation formula for Z value is as follows: Z=1−3*(SDmax+SDmin)/([…]).

hP2X2/3 = target: T2, hP2X2/3 (Homo sapiens, UniProt P56373+Q9UBL9); assay: FLIPR assay, antagonistic activity against hP2X2/3 receptor (selectivity versus P2X3); format: cell-based; settings: Multiple of P2X2/3 inhibitory activity and P2X3 inhibitory activity
T2 construct: host or cells: 1321N1
T2 sequence (P56373 1-397): T1 sequence (P56373 1-397)
T2 sequence (Q9UBL9 1-471): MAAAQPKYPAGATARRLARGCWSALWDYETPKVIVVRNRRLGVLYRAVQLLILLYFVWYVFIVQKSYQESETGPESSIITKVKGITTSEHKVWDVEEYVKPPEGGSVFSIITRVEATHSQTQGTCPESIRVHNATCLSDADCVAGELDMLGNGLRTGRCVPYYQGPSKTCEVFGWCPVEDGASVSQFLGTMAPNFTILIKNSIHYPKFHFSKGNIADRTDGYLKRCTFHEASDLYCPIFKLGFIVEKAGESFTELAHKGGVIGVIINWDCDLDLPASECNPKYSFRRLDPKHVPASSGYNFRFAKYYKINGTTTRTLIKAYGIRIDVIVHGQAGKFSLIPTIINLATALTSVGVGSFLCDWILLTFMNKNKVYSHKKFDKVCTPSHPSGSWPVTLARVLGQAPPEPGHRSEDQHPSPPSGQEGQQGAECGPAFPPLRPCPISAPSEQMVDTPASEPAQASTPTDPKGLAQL
Method: as §1, §2, §3, §4, §5, §6, §7, §8

[1] = test system: mechanical pain hypersensitivity in the rat CFA inflammatory pain model; assay: Analgesic effect in rat CFA inflammatory pain model (von Frey paw withdrawal threshold); format: in vivo, SD rats
Method: Test Example 2: Evaluation of Analgesic Effect of Rat CFA Inflammatory Pain Model
Experimental animals: 50 male SD rats with a weight of 230 g to 260 g were used. All the experimental animals were purchased from Beijing Weitonglihua Experimental Animal Technology Co., LTD. After purchase, food and water were supplied in the way of free feeding. The feeding temperature was 20° C. to 25° C. The humidity was 40% to 70%. The animals were kept in separate cages and labeled using the tail labeling method.
An emulsion was obtained by mixing full Freund's adjuvant with saline in equal amount. A certain amount of the emulsion was injected subcutaneously into the rats. The animal was placed in a specially designed multi-unit metal mesh cage for pain detection and allowed to acclimate for 15 minutes. After the animal's grooming and investigation activities were completed and acclimated to the detection environment, a series of calibrated von Frey filaments (0.4, 0.6, 1.0, 1.4, 2, 4, 6, 8, 10, 15) were continuously applied to the back paw until a withdrawal reflex reaction occurred. The tester conducted blind test on the experiment, and the experimental results were expressed as “mean±standard deviation”. The data of each group are analyzed by GraphPad Prism 5 t test, with statistical difference at P<0.05.

[2] = 14-day toxicity test with toxicokinetics in SD rats; format: in vivo; settings: for AUC / Cmax: SD, rat, blood, 100 mg/kg
Method: Test Example 3: Toxicity Test
There were 16 male and 16 female SD rats with SPF grade. Male SD rats weighed about 240 g and were 6 to 9 weeks old. Female SD rats weighed about 200 g and were 6 to 9 weeks old. All the experimental animals were purchased from Zhejiang Weitonglihua Experimental Animal Technology Co., LTD. After purchase, food and water were supplied in the way of free feeding. The feeding temperature was 20° C. to 26° C. The humidity was 40% to 70%. The number of air changes per hour was ≥15 times, and 100% fresh air was used. Automatic lighting and alternating light and dark every 12 hours were used. Male and female are kept in separate cages, with no more than 5 rats per cage.
Animals in each group were randomly divided according to gender and body weight, and were given the medicament once a day for 14 days according to the dose design in Table 7. Toxicokinetic blood sampling was performed in each dose group 30 min, 1 hr, 4 hr, 7 hr, 10 hr and 24 hr before and after the first and last administration, respectively, to investigate the toxicokinetic process in SD rats of each group.

[3] = Exposure at the effective dose in the rat pain model (basis for safety windows); settings: in vivo
Text: Calculation Basis for Safety Windows:

[4] = female, female SD rats, 100 mg/kg once a day for 14 days, last administration, read-out: AUC0t Last administration
[5] = female, female SD rats, 100 mg/kg once a day for 14 days, last administration, read-out: Cmax Last administration
[6] = female, female SD rats, 100 mg/kg once a day, first administration, read-out: AUC0t First administration
[7] = female, female SD rats, 100 mg/kg once a day, first administration, read-out: Cmax First administration
[8] = male, male SD rats, 100 mg/kg once a day for 14 days, last administration, read-out: AUC0t Last administration
[9] = male, male SD rats, 100 mg/kg once a day for 14 days, last administration, read-out: Cmax Last administration
[10] = male, male SD rats, 100 mg/kg once a day, first administration, read-out: AUC0t First administration
[11] = male, male SD rats, 100 mg/kg once a day, first administration, read-out: Cmax First administration

With O=C(O)[C@@H]1C[C@H]1Cn1c(=O)[nH]/c(=N\c2ccc(Oc3cccc(F)n3)cc2)n(Cc2ccc(Cl)cc2)c1=O (racemic) [Compound H7, (±) trans-2-((3-(4-chlorobenzyl)-4-((4-((6-fluoropyridin-2-yl)oxy)phenyl)imino)-2,6-dioxo-1,3,5-triazin-1-yl)methyl)cyclopropan-1-carboxylic acid] as the compound, how does the IC50 (hP2X3) read?
Its IC50 is 73 nM.

What about the Selectivity multiple (hP2X2/3) of the same compound?
The Selectivity multiple was 114.

For O=C(O)[C@H]1C[C@@H]1Cn1c(=O)[nH]/c(=N\c2ccc(Oc3ccc(F)cn3)cc2)n(Cc2ccc(Cl)cc2)c1=O [Compound H5-P1, (1S,2S)-2-((3-(4-chlorobenzyl)-4-((4-((5-fluoropyridin-2-yl)oxy)phenyl)imino)-2,6-dioxo-1,3,5-triazin-1-yl)methyl)cyclopropan-1-carboxylic acid], which IC50 (hP2X3) is on record?
Its IC50 is 23 nM.

And the Selectivity multiple (hP2X2/3)?
Its Selectivity multiple is 590.

What about the “analgesic effect 4 hours after administration” value ([1]; 60 mg/kg oral, 4 hours after administration) of the same compound?
The value was “good analgesic effect”.

And the “mechanical pain hypersensitivity (paw withdrawal threshold)” value ([1]; rat CFA model, oral, 30 and 60 mg/kg, FIG. 2 and FIG. 3)?
Its value is “significantly inhibits”.

And the “effective dose in the rat pain model” value ([1]; oral)?
The value was 30 mg/kg.

And the AUC [2, 4]?
Its AUC is 1740 µg·h/mL.

And the Cmax [2, 5]?
The Cmax was 135 µg/mL.

And the AUC [2, 6]?
The AUC was 1420 µg·h/mL.

What about the Cmax [2, 7] of the same compound?
The Cmax was 112 µg/mL.

What about the “safety window (in words)” value ([2]; from the data in Table 8) of the same compound?
Its value is “high”.

What about the AUC [2, 8] of the same compound?
Its AUC is 2390 µg·h/mL.

And the Cmax [2, 9]?
Its Cmax is 162 µg/mL.

And the AUC [2, 10]?
The AUC was 1460 µg·h/mL.

What about the Cmax [2, 11] of the same compound?
Its Cmax is 101 µg/mL.

What about the AUC ([3]; 30 mg/kg) of the same compound?
Its AUC is roughly 249 µg·h/mL.

And the Cmax ([3]; 30 mg/kg)?
Its Cmax is roughly 18.4 µg/mL.

What does the source list for O=C(O)[C@@H]1C[C@H]1Cn1c(=O)[nH]c(=Nc2ccc(Oc3ccc(F)cn3)cc2)n(Cc2ccc(Cl)cc2)c1=O [Compound H5-P2, (1R,2R)-2-((3-(4-chlorobenzyl)-4-((4-((5-fluoropyridin-2-yl)oxy)phenyl)imino)-2,6-dioxo-1,3,5-triazin-1-yl)methyl)cyclopropan-1-carboxylic acid]?
IC50 (hP2X3): 106 nM; Selectivity multiple (hP2X2/3): 176

Which Selectivity multiple (hP2X2/3) does the source give for O=C(O)[C@@H]1C[C@H]1Cn1c(=O)[nH]/c(=N\c2ccc(Oc3ccccn3)cc2)n(Cc2ccc(Cl)cc2)c1=O (racemic) [Compound H2, (±) trans-2-((3-(4-chlorobenzyl)-2,6-dioxo-4-(4-(pyridin-2-yloxy)phenylimino)-1,3,5-triazin-1-yl)methyl)cyclopropanecarboxylic acid] here?
Its Selectivity multiple is 151.

For C[C@@H](Cn1c(=O)nc(Nc2ccc(Oc3ccccn3)cc2)n(Cc2ccc(Cl)cc2)c1=O)C(=O)O [Compound D1, reference compound], which “effective dose in the rat pain model” value ([1]; oral) is on record?
Its value is 60 mg/kg.

And the AUC [2, 4]?
The AUC was 2150 µg·h/mL.

And the Cmax [2, 5]?
Its Cmax is 156 µg/mL.

What about the AUC [2, 6] of the same compound?
The AUC was 2420 µg·h/mL.

And the Cmax [2, 7]?
The Cmax was 185 µg/mL.

And the AUC [2, 8]?
The AUC was 2540 µg·h/mL.

And the Cmax [2, 9]?
Its Cmax is 188 µg/mL.

What about the AUC [2, 10] of the same compound?
Its AUC is 2770 µg·h/mL.

And the Cmax [2, 11]?
Its Cmax is 200 µg/mL.

And the AUC ([3]; 60 mg/kg)?
Its AUC is roughly 1570 µg·h/mL.

What about the Cmax ([3]; 60 mg/kg) of the same compound?
The Cmax was roughly 141 µg/mL.

Which IC50 (hP2X3) does the source give for O=C(O)[C@@H]1C[C@H]1Cn1c(=O)[nH]/c(=N\c2ccc(Oc3ncccc3F)cc2)n(Cc2ccc(Cl)cc2)c1=O (racemic) [Compound H8, (±) trans-2-((3-(4-chlorobenzyl)-4-((4-((3-fluoropyridin-2-yl)oxy)phenyl)imino)-2,6-dioxo-1,3,5-triazin-1-yl)methyl)cyclopropane-1-carboxylic acid] here?
The IC50 was 148 nM.

And the Selectivity multiple (hP2X2/3)?
Its Selectivity multiple is 238.

With O=C(O)[C@@H]1C[C@H]1Cn1c(=O)[nH]/c(=N\c2ccc(Oc3ccc(F)cn3)cc2)n(Cc2ccc(Cl)cc2)c1=O (racemic) [Compound H5, (±) trans-2-((3-(4-chlorobenzyl)-4-((4-((5-fluoropyridin-2-yl)oxy)phenyl)imino)-2,6-dioxo-1,3,5-triazin-1-yl)methyl)cyclopropan-1-carboxylic acid] as the compound, how does the Selectivity multiple (hP2X2/3) read?
The Selectivity multiple was 251.

For O=C(O)[C@@H]1C[C@@H]1Cn1c(=O)[nH]/c(=N\c2ccc(Oc3ccccn3)cc2)n(Cc2ccc(Cl)cc2)c1=O (racemic) [Compound H1, (±) cis-2-((3-(4-chlorobenzyl)-2,6-dioxo-4-(4-(pyridin-2-yloxy)phenylimino)-1,3,5-triazin-1-yl)methyl)cyclopropanecarboxylic acid], which Selectivity multiple (hP2X2/3) is on record?
The Selectivity multiple was 27.
